Results from patent publication US4501699A, “Maggiemycin, anhydromaggiemycin and processes for making” (Litton Bionetics, Inc., priority 1982, dated 1985).
Values after ≈ are worked out from the molar mass of the structure shown.

Columns and labels:
[1] = system: murine tumor cell lines KB, L1210 and P388; experiment: In vitro activity against one or all of the murine tumor cell lines KB, L1210 and P388; format: cell-based; conditions: for in vitro antitumor activity: one or all of KB, L1210 and P388
From the text: (§1) A suitable solvent system was developed for the isolation of pure compounds of the invention by using the following systems in TLC. (A) chloroform (100%), (B) chloroform-ethyl acetate (80:20), (C) chloroform-acetone (80:20), (D) chloroform-methanol (80:20), (E) chloroform-acetic acid (95:5), (F) chloroform-acetone-acetic acid (90:8:2), (G) chloroform-hexane-acetic acid (50:50:5), (H) ether-petroleum ether (1:1), (I) chloroform-benzene methanol (6:3:1), (J) chloroform-benzene-methanol (7:3:2), (K) benzene-ethylacetate-methanol-formic acid-water (5:5:1.5:1:0.3), (L) chloroform-hexane-methanol (5:5:1) and (M) chloroform-heptane-methanol-acetic acid (40:40:18:2). In some of the solvents the order of elution changed. […] The crude compound was therefore chromatographed on a TLC grade silica gel column eluting with chloroform (100%), chlorform-acetic acid (99:1), chloroform-acetic acid (98:2), and chloroform-acetic acid (95:5). Based on the TLC, various fractions were combined to produce a red and purple eluate. These were separately concentrated and precipitated with chloroform-petroleum ether to yield red and purple powder. The red powder has been designated as maggiemycin (NSC-D344012) and the purple powder as anhydromaggiemycin. Both these compounds were active against Bacillus subtilis and Straphylococcus aureus. The in vitro antitumor activity of maggiemycin and anhydromaggiemycin against KB, P388 and L1210 murine cell lines is shown in Table 1.
The biological activity of these newly isolated anthracyclinones was compared with some of the known anthracyclinones. Each compounds was tested for in vitro activity against one or all of the murine tumor cell lines KB, L1210 and P388.

Straphylococcus aureus = experiment: Antibacterial activity against Straphylococcus aureus; format: cell-based
P388 = experiment: In vitro cytotoxicity (growth inhibition) against P388; format: cell-based, murine; conditions: Mus musculus, dose level at which 50% inhibition of growth in vitro is noted vs. untreated controls, read-out: ED50 P388
From the text: as §1, with “The in vitro antitumor activity of maggiemycin and anhydromaggiemycin against KB, P388 and L1210 murine cell lines is shown in Table 1.” left out

KB = experiment: In vitro cytotoxicity (growth inhibition) against KB; format: cell-based, murine; conditions: Homo sapiens, dose level at which 50% inhibition of growth in vitro is noted vs. untreated controls, read-out: ED50 KB
From the text: as §1, with “The in vitro antitumor activity of maggiemycin and anhydromaggiemycin against KB, P388 and L1210 murine cell lines is shown in Table 1.” left out

Bacillus subtilis = experiment: Antibacterial activity against Bacillus subtilis; format: cell-based
L1210 = experiment: In vitro cytotoxicity (growth inhibition) against L1210; format: cell-based, murine; conditions: Mus musculus, dose level at which 50% inhibition of growth in vitro is noted vs. untreated controls, read-out: ED50 L1210
From the text: as §1, with “The in vitro antitumor activity of maggiemycin and anhydromaggiemycin against KB, P388 and L1210 murine cell lines is shown in Table 1.” left out

## COc1cccc2c1C(=O)c1c(O)c3c(c(O)c1C2=O)C[C@@](O)(C(C)=O)CC3=O [7-oxidodaunorubicinone]
[1]
  in vitro antitumor activity: active

## CCc1cc(O)c2c(O)c3c(c(O)c2c1C(=O)OC)C(=O)c1cccc(O)c1C3=O [Anhydromaggiemycin]
[1]
  in vitro antitumor activity: active
[1]; relative to maggiemycin
  in vitro antitumor activity, comparison of anhydromaggiemycin with maggiemycin: more active than maggiemycin
Straphylococcus aureus
  activity against Straphylococcus aureus: active
P388
  IC50: 0.62 µg/mL (≈ 1.52 µM)
KB
  IC50: 0.51 µg/mL (≈ 1.25 µM)
Bacillus subtilis
  activity against Bacillus subtilis: active
L1210
  IC50: 0.26 µg/mL (≈ 0.637 µM)

## CC[C@@]1(O)CC(=O)c2c(O)c3c(c(O)c2[C@H]1C(=O)OC)C(=O)c1cccc(O)c1C3=O [Maggiemycin]
[1]
  in vitro antitumor activity: active
Straphylococcus aureus
  activity against Straphylococcus aureus: active
P388
  IC50: 4.4 µg/mL (≈ 10.3 µM)
KB
  IC50: 2.7 µg/mL (≈ 6.33 µM)
Bacillus subtilis
  activity against Bacillus subtilis: active
L1210
  IC50: 5.2 µg/mL (≈ 12.2 µM)

## COc1cccc2c1C(=O)c1c(c(O)c3cc(C(C)=O)cc(O)c3c1O)C2=O [anhydro-7-oxidodaunorubicinone, Anhydro-7-oxidodaunorubicinone]
[1]
  in vitro antitumor activity: inactive

## COc1cccc2c1C(=O)c1c(O)c3c(c(O)c1C2=O)C[C@@](O)(C(C)=O)C[C@@H]3O [daunorubicinone, Daunorubicinone, reference compound]
[1]
  in vitro antitumor activity: inactive

## CC[C@@]1(O)C[C@H](O)c2c(O)c3c(c(O)c2[C@H]1C(=O)OC)C(=O)c1cccc(O)c1C3=O [ε-rhodomycinone, ε-Rhodomycinone, reference compound]
[1]
  in vitro antitumor activity: inactive
